The record followed here is the NIST ThermoML archive (doi:10.1021/je050134y).

Numbers after ± are expanded uncertainties.

The nature of this data set: activity coefficient (dimensionless); of the first substance listed, at infinite dilution; xn = mol fraction of the nth substance listed. The conditions noted are these: 298 K; 101.3 kPa; Liquid; Chromatography; x1 = 0.
`CCCCCCCCCCCC` [dodecane] + CCCCCCCC[n+]1ccn(C)c1.F[B-](F)(F)F: the activity coefficient is 77.9 ± 5.3. As for `CCCCCCCC` [octane] + CCCCCCCC[n+]1ccn(C)c1.F[B-](F)(F)F, the activity coefficient amounted to 22 ± 1.5.

In the case of `CCCCCCC` [heptane] + CCCCCCCC[n+]1ccn(C)c1.F[B-](F)(F)F, the activity coefficient is 16 ± 1.1. Turning to `CCO` [ethanol] + CCCCCCCC[n+]1ccn(C)c1.F[B-](F)(F)F, the activity coefficient turned out to be 1.75 ± 0.12. For `CCCCCCCCCCC` [undecane] + CCCCCCCC[n+]1ccn(C)c1.F[B-](F)(F)F, the activity coefficient came to 60.9 ± 4.2. On to `C=CCCCCCC` [oct-1-ene] + CCCCCCCC[n+]1ccn(C)c1.F[B-](F)(F)F, for which the activity coefficient worked out at 13.1 ± 0.9. With `CCCCC` [pentane] + CCCCCCCC[n+]1ccn(C)c1.F[B-](F)(F)F, the activity coefficient amounted to 9.07 ± 0.62.

As to `CCCCO` [butan-1-ol] + CCCCCCCC[n+]1ccn(C)c1.F[B-](F)(F)F, the activity coefficient came out at 2.32 ± 0.16.

Take `CCCO` [propan-1-ol] + CCCCCCCC[n+]1ccn(C)c1.F[B-](F)(F)F: the activity coefficient is 2.18 ± 0.15.

As to `CCCCCCCCCC` [decane] + CCCCCCCC[n+]1ccn(C)c1.F[B-](F)(F)F, the activity coefficient turned out to be 36.4 ± 2.5.

Regarding `CCCCCCCCC` [nonane] + CCCCCCCC[n+]1ccn(C)c1.F[B-](F)(F)F, the activity coefficient came out at 28.4 ± 1.9. Take `CO` [methanol] + CCCCCCCC[n+]1ccn(C)c1.F[B-](F)(F)F: the activity coefficient worked out at 1.07 ± 0.07.

As for `C=CCCCCCCCCCC` [1-dodecene] + CCCCCCCC[n+]1ccn(C)c1.F[B-](F)(F)F, the activity coefficient amounted to 32.7 ± 2.2. Regarding `C=CCCCC` [hex-1-ene] + CCCCCCCC[n+]1ccn(C)c1.F[B-](F)(F)F, the activity coefficient was determined as 7.06 ± 0.48.

`C1=CCCC=C1` [1,3-cyclohexadiene] + CCCCCCCC[n+]1ccn(C)c1.F[B-](F)(F)F: the activity coefficient was 2.69 ± 0.18. Regarding `CCCCCO` [pentan-1-ol] + CCCCCCCC[n+]1ccn(C)c1.F[B-](F)(F)F, the activity coefficient came out at 2.38 ± 0.16. As to `C=CCCCCCCC` [1-nonene] + CCCCCCCC[n+]1ccn(C)c1.F[B-](F)(F)F, the activity coefficient was determined as 16.5 ± 1.1. In the case of `C=CCCCCCCCC` [1-decene] + CCCCCCCC[n+]1ccn(C)c1.F[B-](F)(F)F it was 21.4 ± 1.5; in that of `C=CCCC` [1-pentene] + CCCCCCCC[n+]1ccn(C)c1.F[B-](F)(F)F, 5.08 ± 0.35; in that of `CCCCCC` [hexane] + CCCCCCCC[n+]1ccn(C)c1.F[B-](F)(F)F, 12.4 ± 0.8. Turning to `CCCCCCO` [hexan-1-ol] + CCCCCCCC[n+]1ccn(C)c1.F[B-](F)(F)F, the activity coefficient is 2.58 ± 0.18. Consider `C=CCCCCC` [1-heptene] + CCCCCCCC[n+]1ccn(C)c1.F[B-](F)(F)F, for which the activity coefficient worked out at 9.76 ± 0.67. Regarding `C=CCCCCCCCCC` [1-undecene] + CCCCCCCC[n+]1ccn(C)c1.F[B-](F)(F)F, the activity coefficient stood at 25.8 ± 1.8.
